These results are taken from ChEMBL document CHEMBL5154648, “Antitumor activity of novel POLA1-HDAC11 dual inhibitors” (Eur J Med Chem, 2022).

What is called pIC50 is −log10 of the IC50, conventionally taken in molar units.

SMILES strings stand for the structures. pIC50: −log10 of the molar value. The source made the active and inactive calls. No cut-off for these calls is given here.

One assay has as its system NB-4. Briefly: Antiproliferative activity against human NB-4 cells incubated for 24 hrs followed by incubating in drug-free medium for 48 hrs and measured by SRB assay. Type of assay: functional, cell-based. On the technique in general: Sulforhodamine B stains cellular protein and so reports cell mass.
A short description of assay [1]: Antiproliferative activity against human H460-R9A cells incubated for 24 hrs followed by incubating in drug-free medium for 48 hrs and measured by SRB assay. Format: functional, cell-based.
A short description of assay [2]: Antiproliferative activity against multi-drug resistant human A2780-DX cells incubated for 24 hrs followed by incubating in drug-free medium for 48 hrs and measured by SRB assay. Type of assay: functional, cell-based.
Assay [3] deals with T1, DNA polymerase alpha catalytic subunit (Homo sapiens) (UniProt P09884).
T1 sequence (whole entry): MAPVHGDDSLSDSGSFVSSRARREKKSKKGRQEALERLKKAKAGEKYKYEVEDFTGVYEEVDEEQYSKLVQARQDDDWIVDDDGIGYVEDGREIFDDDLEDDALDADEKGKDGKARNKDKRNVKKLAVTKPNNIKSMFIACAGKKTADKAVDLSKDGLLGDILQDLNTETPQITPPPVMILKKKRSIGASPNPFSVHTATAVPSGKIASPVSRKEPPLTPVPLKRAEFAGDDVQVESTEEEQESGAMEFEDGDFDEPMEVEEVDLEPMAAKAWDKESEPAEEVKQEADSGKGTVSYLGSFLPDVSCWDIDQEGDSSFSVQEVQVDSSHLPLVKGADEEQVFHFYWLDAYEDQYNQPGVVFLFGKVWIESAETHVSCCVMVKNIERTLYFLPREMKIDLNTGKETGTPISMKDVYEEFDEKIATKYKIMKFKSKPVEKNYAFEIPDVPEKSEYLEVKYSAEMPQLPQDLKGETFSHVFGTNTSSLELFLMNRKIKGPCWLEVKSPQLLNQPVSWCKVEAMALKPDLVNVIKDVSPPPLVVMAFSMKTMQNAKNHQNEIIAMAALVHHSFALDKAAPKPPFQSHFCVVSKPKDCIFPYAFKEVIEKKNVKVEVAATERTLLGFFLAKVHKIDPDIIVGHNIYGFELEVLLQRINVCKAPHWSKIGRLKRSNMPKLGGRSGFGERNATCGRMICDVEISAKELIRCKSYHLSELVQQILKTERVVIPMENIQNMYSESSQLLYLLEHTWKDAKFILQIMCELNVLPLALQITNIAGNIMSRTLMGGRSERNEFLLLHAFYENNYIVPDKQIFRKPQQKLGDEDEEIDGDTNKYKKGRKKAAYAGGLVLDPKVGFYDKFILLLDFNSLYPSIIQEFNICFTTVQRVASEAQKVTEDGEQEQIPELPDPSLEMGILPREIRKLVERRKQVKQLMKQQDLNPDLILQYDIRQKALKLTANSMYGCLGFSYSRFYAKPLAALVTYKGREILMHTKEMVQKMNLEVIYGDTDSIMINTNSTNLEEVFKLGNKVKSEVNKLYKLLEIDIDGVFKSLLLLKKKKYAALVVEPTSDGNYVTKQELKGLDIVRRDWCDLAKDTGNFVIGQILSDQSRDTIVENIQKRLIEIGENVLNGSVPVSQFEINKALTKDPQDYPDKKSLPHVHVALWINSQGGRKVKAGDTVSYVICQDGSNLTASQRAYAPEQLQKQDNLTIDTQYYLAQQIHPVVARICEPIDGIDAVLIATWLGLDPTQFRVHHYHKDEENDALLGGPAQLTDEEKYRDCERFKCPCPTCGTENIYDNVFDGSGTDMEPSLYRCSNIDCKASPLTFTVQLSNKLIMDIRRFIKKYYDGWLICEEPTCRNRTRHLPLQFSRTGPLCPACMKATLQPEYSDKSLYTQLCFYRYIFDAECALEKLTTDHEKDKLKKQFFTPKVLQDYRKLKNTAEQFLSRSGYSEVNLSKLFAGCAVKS
Put plainly: Inhibition of POLA1 in human NCI-H460 cells at 0.1 to 0.4 uM assessed as upregulation of p21 expression and measured by Western blot analysis. Type of assay: cell-based. The following applies: dose 0.1-0.4 µM. In general terms: Immunoblotting shows a protein as a band on a membrane.

Another assay deals with MM473. Put plainly: Antiproliferative activity against human MM473 cells incubated for 24 hrs followed by incubating in drug-free medium for 48 hrs and measured by SRB assay. Format: functional, cell-based.
A further assay deals with NCI-H460. Put plainly: Antiproliferative activity against human NCI-H460 cells incubated for 24 hrs followed by incubating in drug-free medium for 48 hrs and measured by SRB assay. Format: functional, cell-based.
A further assay addresses T2, Histone deacetylase 11 (Homo sapiens, UniProt Q96DB2).
T2 sequence (Q96DB2 whole entry): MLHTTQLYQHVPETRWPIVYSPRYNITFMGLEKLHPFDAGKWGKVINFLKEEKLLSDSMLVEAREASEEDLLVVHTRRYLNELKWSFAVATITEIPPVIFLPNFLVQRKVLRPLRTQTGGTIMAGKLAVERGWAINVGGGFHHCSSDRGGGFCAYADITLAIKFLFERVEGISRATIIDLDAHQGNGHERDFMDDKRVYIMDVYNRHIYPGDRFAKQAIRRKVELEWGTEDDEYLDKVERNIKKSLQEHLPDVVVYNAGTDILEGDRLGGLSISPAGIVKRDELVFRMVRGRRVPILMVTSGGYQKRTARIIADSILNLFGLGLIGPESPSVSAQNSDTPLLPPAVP
Briefly: Inhibition of HDAC11 (unknown origin) using fluorogenic peptide 382 RHKK(Ac)AM as substrate and measured by fluorescence assay.

In a further assay the test system is Z-138. Briefly: Antiproliferative activity against human Z138 cells incubated for 24 hrs followed by incubating in drug-free medium for 48 hrs and measured by SRB assay. Format: functional, cell-based.
The next assay has as its system U2932. Briefly: Antiproliferative activity against human U2932 cells incubated for 24 hrs followed by incubating in drug-free medium for 48 hrs and measured by SRB assay. Type of assay: functional, cell-based.
The next assay relates to L-428. Put plainly: Antiproliferative activity against human L-428 cells incubated for 24 hrs followed by incubating in drug-free medium for 48 hrs and measured by SRB assay. Format: functional, cell-based.
Assay [4] can be described thus: Resistance index, ratio of IC50 for human NCI-H460 cells to IC50 for H460-R9A cells. Type of assay: functional.
Assay [5] is described as follows: Antiproliferative activity against human MM432 cells incubated for 24 hrs followed by incubating in drug-free medium for 48 hrs and measured by SRB assay. Type of assay: functional, cell-based.
The nature of assay [6]: Resistance index, ratio of IC50 for human A2780 cells to IC50 for A2780-DX cells. Type of assay: functional.
The nature of assay [7]: Antiproliferative activity against human MM487 cells incubated for 24 hrs followed by incubating in drug-free medium for 48 hrs and measured by SRB assay. Type of assay: functional, cell-based.
A further assay has as its system Ramos. Briefly: Antiproliferative activity against human Ramos cells incubated for 24 hrs followed by incubating in drug-free medium for 48 hrs and measured by SRB assay. Format: functional, cell-based.
A short description of assay [8]: Antiproliferative activity against human U-87 MG cells incubated for 24 hrs followed by incubating in drug-free medium for 48 hrs and measured by SRB assay. Format: functional, cell-based, U-87MG ATCC.
A further assay relates to THP-1. Briefly: Antiproliferative activity against human THP-1 cells incubated for 24 hrs followed by incubating in drug-free medium for 48 hrs and measured by SRB assay. Format: functional, cell-based.
The next assay concerns A2780. Briefly: Antiproliferative activity against human A2780 cells incubated for 24 hrs followed by incubating in drug-free medium for 48 hrs and measured by SRB assay. Format: functional, cell-based.
A further assay has as its system MDA-MB-436. Briefly: Antiproliferative activity against human MDA-MB-436 cells incubated for 24 hrs followed by incubating in drug-free medium for 48 hrs and measured by SRB assay. Format: functional, cell-based.

As to `CC(Oc1ccc(-c2ccc(C=CC(=O)O)cc2)cc1C12CC3CC(CC(C3)C1)C2)C(=O)NO` (configuration not stated), the pIC50 is 6.64 with NB-4; 5.66 in assay [1]; 6.18 in assay [2]; 5.85 in the assay with MM473; 6.59 in the assay on NCI-H460; 5.08 against Histone deacetylase 11. In addition, the pIC50 with Z-138 is 6.80; in the assay on U2932, 6.11; in the assay with L-428, 5.49; in [5], 5.85; in assay [7], 6.14; with Ramos it was 5.92. Besides, the pIC50 in assay [8] is 6.00; in the assay on THP-1, 6.28; in the assay on A2780, 6.02; in the assay with MDA-MB-436 it was 6.11. Also, the inhibition result in [3] is “Active”. The “Ratio IC50” value in assay [4] is 8.5; in [6] it was 0.7.

On to `O=C(O)C=Cc1ccc(-c2ccc(OCC(=O)NO)c(C34CC5CC(CC(C5)C3)C4)c2)cc1`, for which the pIC50 in the assay with NB-4 was 6.74; in assay [1], 5.55; in [2], 6.39; with MM473, 4.92; with NCI-H460, 6.60; against Histone deacetylase 11, 5.22. Moreover, the pIC50 is 7.42 in the assay with Z-138; 6.28 with U2932; 5.68 in the assay on L-428; 6.05 in assay [5]; 4.66 in assay [7]; 6.15 with Ramos. In addition, the pIC50 in assay [8] was 5.96; in the assay with THP-1 it was 6.38; with A2780 it was 6.22; in the assay on MDA-MB-436, 6.19. Moreover, the inhibition entry in assay [3] was “Active”. Also, the entries for the “Ratio IC50” value in assay [4] and in assay [6] were 11.2 and 0.7, respectively.

Regarding `O=C(O)C=Cc1ccc(-c2ccc(O)c(C34CC5CC(CC(C5)C3)C4)c2)cc1`, the pIC50 was 7.00 with NB-4; 5.08 in assay [1]; 6.77 in [2]; 6.22 in the assay with MM473; 6.92 with NCI-H460; below 5.00 on Histone deacetylase 11. The pIC50 in the assay with Z-138 is 7.59; with U2932 it was 7.11; in the assay with L-428 it was 6.35; in assay [5] it was 6.37; in assay [7] it was 7.00; with Ramos it was 6.54. The pIC50 was 6.28 in assay [8], 6.82 in the assay on THP-1, 7.01 in the assay with A2780 and 6.26 with MDA-MB-436. Also, the inhibition entry in [3] was “Active”. In addition, the “Ratio IC50” value in assay [4] amounted to 70; in assay [6] it was 1.7.
